This is an account of results in patent US11504358B2, “Extended release methazolamide formulation” (Effcon Laboratories, Inc., priority 2017, dated 2022).

Series [1] is described as follows: Methazolamide particle size testing, laser particle size analyzer. Type of series: physicochemical. The following applies: particles milled in-house. On the procedure: The following conventions apply when describing particle size distribution. D(v, 0.1) means that 10% of the particles are smaller than this diameter. D(v, 0.5) is the median particle diameter. D(v, 0.9) means that 90% of the particles are smaller than this diameter.
Methazolamide particle size testing was performed on unmilled methazolamide particles and methazolamide particles milled in-house and by a third party vendor according to the above milling procedure. Methazolamide particle size testing was conducted using a Mastersizer laser particle size analyzer from Malvern Instruments or a sonic shifter. The results of the particle size testing for methazolamide particles milled in-house, as measured by a laser particle size analyzer, are as follows: […]

Series [2] can be described thus: Methazolamide particle size testing, sonic shifter (sieves). It counts as physicochemical. On the procedure: Methazolamide particle size testing was performed on unmilled methazolamide particles and methazolamide particles milled in-house and by a third party vendor according to the above milling procedure. Methazolamide particle size testing was conducted using a Mastersizer laser particle size analyzer from Malvern Instruments or a sonic shifter. The results of the particle size testing for methazolamide particles milled in-house, as measured by a laser particle size analyzer, are as follows:
The results of the particle size testing for unmilled methazolamide particles, methazolamide particles milled in-house, and methazolamide particles milled by a third party vendor, as measured by a sonic shifter, are as follows: […]

Series [3] is described as follows: Density of methazolamide particles. Type of series: physicochemical.
The conditions of series [4]: in water, alcohol and acetone; cited from earlier work.

In the case of `CC(=O)/N=c1/sc(S(N)(=O)=O)nn1C` [Sample 2], in series [1], the “D(v, 0.1)” value was found to be 47.67 μm; the “D(v, 0.5)” value came to 132.34 μm; the “D(v, 0.9)” value is 269.30 μm.
Regarding `CC(=O)/N=c1/sc(S(N)(=O)=O)nn1C` [Sample 1], in series [1], the “D(v, 0.1)” value worked out at 42.15 μm; the “D(v, 0.5)” value amounted to 121.45 μm; the “D(v, 0.9)” value came out at 255.75 μm.
Consider `CC(=O)/N=c1/sc(S(N)(=O)=O)nn1C` [Milled API (in-house)], for which, in series [2], the “% Retained, Fines Collector” value is recorded as 16.51%; the “% Retained, Sieve # 20 (840 μm)” value stood at 1.23%; the “% Retained, Sieve # 40 (420 μm)” value is on record as 1.52%; the “% Retained, Sieve # 80 (177 μm)” value came to 15.27%. Also, in series [2], the “% Retained, Sieve # 100 (149 μm)” value amounted to 19.54%; the “% Retained, Sieve # 140 (105 μm)” value is 32.92%; the “% Retained, Sieve # 200 (74 μm)” value is 13.00%. Also, in series [3], the “Bulk Density” value is reported as 0.56 g/mL and the “Trapped Density” value is recorded as 0.99 g/mL.
For the compound `CC(=O)/N=c1/sc(S(N)(=O)=O)nn1C` [Milled API (3rd party)], in series [2], the “% Retained, Fines Collector” value amounted to 15.56%; the “% Retained, Sieve # 20 (840 μm)” value was determined as 5.15%; the “% Retained, Sieve # 40 (420 μm)” value is 6.14%; the “% Retained, Sieve # 80 (177 μm)” value is 21.88%. In series [2], the “% Retained, Sieve # 100 (149 μm)” value worked out at 17.14%; the “% Retained, Sieve # 140 (105 μm)” value is reported as 21.90%; the “% Retained, Sieve # 200 (74 μm)” value stood at 12.29%. Also, in series [3], the “Bulk Density” value was 0.53 g/mL and the “Trapped Density” value is 1.00 g/mL.
Take `CC(=O)/N=c1/sc(S(N)(=O)=O)nn1C` [Unmilled API]: in series [2], the “% Retained, Fines Collector” value stood at 0.83%; the “% Retained, Sieve # 20 (840 μm)” value was found to be 0.09%; the “% Retained, Sieve # 40 (420 μm)” value is reported as 7.95%; the “% Retained, Sieve # 80 (177 μm)” value worked out at 75.05%. Further, in series [2], the “% Retained, Sieve # 100 (149 μm)” value was 8.04%; the “% Retained, Sieve # 140 (105 μm)” value was 6.01%; the “% Retained, Sieve # 200 (74 μm)” value came out at 2.03%. For the same compound, in series [3], the “Bulk Density” value is 0.92 g/mL and the “Trapped Density” value worked out at 1.03 g/mL.
With `CC(=O)/N=c1/sc(S(N)(=O)=O)nn1C` [Sample 3], in series [1], the “D(v, 0.1)” value turned out to be 48.42 μm; the “D(v, 0.5)” value is listed as 128.46 μm; the “D(v, 0.9)” value is on record as 267.26 μm.
Take `CC(=O)N=c1sc(S(N)(=O)=O)nn1C` [Methazolamide, N-[5-(aminosulfonyl)-3-methyl-1,3,4-thiadiazol-2(3H)-ylidene]acetamide]: in series [4], the Solubility result was “slightly soluble”.
